# Test results published in patent publication US12534748B2, “Engineered beta-subunit of tryptophan synthase for production of non-canonical amino acids” (California Institute of Technology, priority 2015, dated 2026).
# Changes are numbered by the printed parent chain.
# Legend:
# [1] = molecular target: T1, Pyrococcus furiosus tryptophan synthase complex PfTrpS (PfTrpA + PfTrpB) (Pyrococcus furiosus, UniProt Q8U093); assay: Tryptophan formation from L-serine and indole, kinetics of PfTrpS complex; assay type: biochemical
# T1 sequence (Q8U093 with tags, fused parts or gaps): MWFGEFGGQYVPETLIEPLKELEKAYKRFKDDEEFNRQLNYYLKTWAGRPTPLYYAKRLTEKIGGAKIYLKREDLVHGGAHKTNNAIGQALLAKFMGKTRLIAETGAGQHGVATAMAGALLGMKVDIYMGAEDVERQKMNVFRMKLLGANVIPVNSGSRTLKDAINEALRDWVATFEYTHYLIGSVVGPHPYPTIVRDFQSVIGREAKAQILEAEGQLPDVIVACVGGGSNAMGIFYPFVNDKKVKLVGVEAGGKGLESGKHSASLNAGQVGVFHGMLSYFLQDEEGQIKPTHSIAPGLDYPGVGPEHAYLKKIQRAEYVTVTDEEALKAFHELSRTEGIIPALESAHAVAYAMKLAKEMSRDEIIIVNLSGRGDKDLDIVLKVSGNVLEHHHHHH
# T1 sequence (Q8U094 1-248 partner): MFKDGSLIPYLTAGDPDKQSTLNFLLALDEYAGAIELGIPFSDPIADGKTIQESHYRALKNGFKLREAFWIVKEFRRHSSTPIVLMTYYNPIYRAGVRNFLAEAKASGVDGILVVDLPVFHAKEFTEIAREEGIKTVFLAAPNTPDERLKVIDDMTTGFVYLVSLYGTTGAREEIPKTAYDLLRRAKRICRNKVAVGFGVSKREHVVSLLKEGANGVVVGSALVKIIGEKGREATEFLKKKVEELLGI
# Method: (§1) Cloning, Expression, and Purification of PfTrpA and PfTrpB. The genes encoding PfTrpB (UNIPROT ID Q8U093) and PfTrpA (UNIPROT ID Q8U094) were obtained as gBlocks and cloned into pET22(b)+ for expression in E. coli BL21 E. cloni EXPRESS cells (Lucigen). Heterologous protein expression of PfTrpA and PfTrpB was performed in Terrific Broth with 100 μg/mL ampicillin (TBamp) and induced with 500 mM IPTG (final concentration 1 mM). PfTrpB was purified via a HisTrap HP column. PfTrpA was purified via a Q HP HiTrap column (flow-through), followed by ammonium sulfate precipitation, and hydrophobic interaction chromatography on a phenyl Sepharose HP HiTrap column (FIG. 3).
# (§2) Kinetics and UV-Vis Spectroscopy.
# Selection of the Parent Enzyme, TrpB, from Pyrococcus furiosus.
# [2] = molecular target: T2, Pyrococcus furiosus TrpB variant PfTrpB^4D11 (E17G, I68V, T292S, F274S, T321A), SEQ ID NO: 16 (Pyrococcus furiosus, UniProt Q8U093, E17G/F274S/I68V/T292S/T321A); assay: Tryptophan formation from L-serine and indole, kinetics of PfTrpB^4D11; assay type: biochemical; conditions: 75° C.
# T2 sequence (Q8U093 with tags, fused parts or gaps E17G/I68V/F274S/T292S/T321A): T1 sequence (Q8U093 with tags, fused parts or gaps) with E17G, I68V, F274S, T292S, T321A
# Method: as §1, §2
# PfTrpB^4D11 served as template for a final round of random mutagenesis, for which 1,144 clones were screened.
# [3] = molecular target: T3, Thermotoga maritima TrpB variant TmTrpB^0B2 (P14L, P19G, I69V, L274S, T292S) (Thermotoga maritima, UniProt P50909, I69V/L274S/P14L/P19G/T292S); assay: Tryptophan formation from L-serine and indole, kinetics of TmTrpB^0B2
# T3 sequence (P50909 with tags, fused parts or gaps P14L/P19G/I69V/L274S/T292S): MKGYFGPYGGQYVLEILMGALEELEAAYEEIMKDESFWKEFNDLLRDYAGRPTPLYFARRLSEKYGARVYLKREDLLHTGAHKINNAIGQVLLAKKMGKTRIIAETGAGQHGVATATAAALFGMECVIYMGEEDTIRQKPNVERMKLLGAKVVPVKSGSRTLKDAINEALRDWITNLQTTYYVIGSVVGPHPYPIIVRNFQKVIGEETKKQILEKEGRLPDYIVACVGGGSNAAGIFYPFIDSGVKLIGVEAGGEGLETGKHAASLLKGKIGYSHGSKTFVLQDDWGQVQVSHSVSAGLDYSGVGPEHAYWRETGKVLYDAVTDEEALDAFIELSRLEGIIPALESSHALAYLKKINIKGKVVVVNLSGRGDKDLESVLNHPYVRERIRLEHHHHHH
# Source text: as §2
# Cloning, expression, and purification of the different orthologs.
# The next homolog, TmTrpB, was examined.
# [4] = molecular target: T4, Pyrococcus furiosus TrpB variant M144T N166D (Table 6 prints N166T), SEQ ID NO: 20 (Pyrococcus furiosus, UniProt Q8U093, M144T/N166D); assay: Tryptophan formation from L-serine and indole, kinetics of PfTrpB double mutant
# T4 sequence (Q8U093 with tags, fused parts or gaps M144T/N166D): T1 sequence (Q8U093 with tags, fused parts or gaps) with M144T, N166D
smiles,measurement,setting,value
c1ccc2[nH]ccc2c1 [indole],kcat,[1]; 75° C.,1.0 s⁻¹
same,increase in catalytic efficiency for indole upon complexation,[1]; PfTrpS relative to PfTrpB,12 fold
same,Km,"[1]; read-out: KM, indole, 75° C.",20 µM
same,kcat,[2],2.2 s⁻¹
same,Km,"[2]; read-out: KM, indole",11 µM
same,kcat,[3]; 75° C.,0.11 s⁻¹
same,kcat relative to wild-type activity,[3]; of the wild-type activity,10%
same,kcat,[4]; 75° C.,0.83 s⁻¹
same,kcat increase,[4]; M144T and N166D in PfTrpB,at least 2 fold
